Experimental data published in US8048918B2, “Treatment of hyperproliferative diseases” (Vampex Limited, priority 2000, dated 2011).
“Also recorded” adds a separate entry of the source. Where no end group is shown, it is not given here.

How the values were obtained:
[1] = test system: hyperproliferative psoriatic keratinocytes; assay: proliferation assay (Coulter cell counter) on hyperproliferative psoriatic keratinocytes; assay type: cell-based, human
Description: Biopsy samples are obtained from psoriatic patients. Skin from patients with chronic plaque psoriasis are obtained with informed consent. Ethical approval has been obtained previously from The South Sheffield Regional Ethics Committee. Biopsies are all be taken from the lower back in psoriasis patients aged 40 to 60.
Remove subcutaneous tissue and some of the dermis with scissors, dissect skin into 1×2 cm pieces with a scalpel. Rinse the tissue 2-5 times in PBSA. Float skin samples on 0.6% Trypsin in PBSA (pH 7.4) ON at 4° C. (or alternatively for 20-30 min at 37° C.)
The separation of the epidermis is carefully monitored. When the first detachment of the epidermis is visible at the cut edges of the skin sample place the pieces (dermis-side down) in 100 mm Petri dishes. Irrigate with 5 ml of complete culture medium (incl. serum). Peel off the epidermis with forceps and collect it in a 50 ml centrifuge tube containing 20 ml of complete culture medium (KGM). Separate the keratinocytes from the epidermal cells by gently pipetting and sieving through a nylon gauze of 100 μm mesh. Wash the isolated epidermal cells twice in KGM by centrifugation at 100 g for 10 min, and count the total number of cells.
Cells are seeded at 37° C. in KGM medium at a density of 2500 cells/cm^2 in a 25 cm^2 cell culture flask. The medium is replaced every 48 hours and cells are passaged when confluent.
Cell Seeding and Analysis: Purchased secondary cultures or primary cultures (from donor skin) are seeded at 3500 cells/cm^2 in K-SFM 25 cm^2 tissue culture flasks. The medium is changed (5 ml per flask) the day after seeding and every other day thereafter. At 70-80% confluence the cells are subcultured by seeding 3500 cells per well in 24 well cell culture plates, each well containing 500 μl of K-SFM. One well plate is seeded for each treatment. After allowing one day for settling the cells are switched to experimental medium (500 μl per well). Stock solutions of additions are as before. Experimental treatments are as follows:
The medium is replaced every other day. Cells are harvested by trypsinisation. 500 μl Trypsin/EDTA is added to each well to be harvested and then aspirated off. The well plates are incubated for 5-6 min at 37° C. 500 μl PBS is added to the wells and the cells are resuspended. The cell suspension is added to 20 ml Isoton solution in a Coulter counter “Accuvette” and the cells are counted. On each harvest, 3 wells of cells are counted for each treatment and 3 counts were made for each well.
Cell number is calculated as follows: Coulter Counter removes 500 μl of 20 ml sample ( 1/40). Multiply cell count by 40 to obtain cell number in cup, this equals the total number of cells in one well (approximately, as ˜10% taken out for viability test). […]

[2] = test system: hyperproliferative psoriatic keratinocytes; assay: differentiation assay (K1/K10 mRNA, Northern blot / RT-PCR) on hyperproliferative psoriatic keratinocytes; assay type: cell-based, human
Description: RNA extraction is carried out according to the manufacturers instructions using the RNeasy kit (QIAGEN). 20 μg of RNA for each treatment was separated on a 1.2% agarose (1.8% formaldehyde) gel and transferred onto a nylon membrane (Zeta probe GT membranes, BioRad) by capillary transfer. The RNA is fixed to the membrane by UV crosslinking. DNA probes for the differentiation markers K1 and K10(50 ng) are labelled with [α-^32P] dCTP using the Prime-It RmT Primer labeling kit (Stratagene) following the manufacturer's instructions. Unincorporated nucleotides are removed by elution through a Microspin G25 column (Pharmacia Biotech). The blots are wetted in 0.25M sodium phosphate (pH 7.2)/7% SDS for 30 minutes at 65° C. Fresh hybridisation solution is added along with the radiolabelled probe and the blot is hybridised overnight at 65° C.
The blot is washed for 2×5 minutes in 0.25M sodium phosphate (pH 7.2), 7% SDS and then for 2×5 minutes in 20 mM sodium phosphate (pH 7.2), 5% SDS at 65° C. The wash steps are repeated until a clear distinction can be made between the signal and non-specific background. The blot is exposed to x-ray film for 24 hours before developing.
Synthesis of mRNA for the K1 and K10 keratin (markers for commitment to terminal differentiation) is examined by quantitative reverse transcription PCR (RT-PCR). Synthesis of mRNA for Cyclin D (a marker for cell proliferation) is also assayed by RT-PCR. Standard protocol for RT-PCR is followed as recommended by the manufacturer of the PCR machine (PE 2400) using 1 μg RNA from each keratinocyte culture. Suitable primers for RT-PCR are designed based on the human sequences of K1 and K10 deposited in GenBank. Northern blots are also performed: cells are harvested, RNA extracted and 20 μg RNA loaded into each well of a formaldehyde/agarose gel. The RNA is blotted onto a nylon membrane by capillary transfer and expression of K1 mRNA is determined by Northern hybridisation with a radiolabelled DNA probe.
Next, hyperproliferative epidermal keratinocytes are obtained, isolated and cultured as described above in Example 3. Hyperproliferative psoriatic keratinocytes are cultured as described above in serum-free medium with or without the addition of […] human retinol binding protein. At confluence the cells are treated (see Table 3 below) for 96 hours with peptides to 6 μM (medium replaced after 48 hours). Treatments shown in the Table 3 are for duplicate T-25 flasks (2×7 ml for each treatment).
The final concentrations are: Ca^2+ 1.2 mM, RBP 0.6 μM, peptides 6 μM.
Expression of K1 and K10 markers is determined as described above in Example 4. […]
Synthesis of mRNA for markers of proliferation and differentiation is also examined by semi-quantitative reverse transcription PCR (RT-PCR). […]

[3] = test system: COS-1 cells; assay: proliferation assay of COS-1 cells (Coulter counter); assay type: cell-based; conditions: P142 1 mg/ml, peptides 6 μM; 24 and 48 hours after treatment; FIG. 7
Description: (§1) […] (COS1 and COS7) are purchased from the European Cell Culture Collection, thawed and propagated according to the instructions from the supplier; cells are cultured essentially in the same manner as for normal human keratinocytes (Example 3 above), except that cells are seeded at 20 000 cells/cm^2, with only one treatment with antibody P142, control immunoglobulin, peptide 589, peptide 592 or control peptide 24 hrs after seeding.
(§2) Proliferation is assayed by counting cells in a Coulter counter, as described above.

[4] = test system: human dermal fibroblast cells; assay: proliferation assay of human dermal fibroblast cells; assay type: cell-based; conditions: P142 1 mg/ml, peptides 6 μM; 24 hours and 4 days after treatment; FIG. 9
Description: Fibroblast cell culture is performed essentially as described for culture of hyperproliferative psoriatic keratinocytes (Example 3), except that following irrigation with complete culture medium, the dermal portion is incubated with 1 mg/ml of collagenase (Sigma) in 20 ml DMEM in a 50 ml centrifuge tube for 16 hours at 37° C. Then 20 ml DMEM containing 5% foetal calf serum and 1% antibiotic/antimycotic solution (Gibco) is added and the cells seeded at 37° C. in DMEM medium+additions at a density of 2500 cells/cm^2 in a 25 cm^2 cell culture flask. Medium is replaced every 48 hours and cells passaged when confluent.
Fibroblast cell culture and experiments are performed essentially as described for culture of hyperproliferative psoriatic keratinocytes (above), except that following irrigation with complete culture medium, the dermal portion is processed further. Reference is made to fibroblast culture protocols set out above.
Proliferation of cells is assayed by direct cell counting essentially as for determination of proliferation in keratinocyte cell cultures. RDH, ADH, RalDH inhibitors are found to reduce proliferation.

[5] = test system: COS-7 cells; assay: proliferation assay of COS-7 cells (Coulter counter); assay type: cell-based; conditions: P142 1 mg/ml, peptides 6 μM; 24 and 48 hours after treatment; FIG. 8
Description: as §1, §2

[6] = peptides 6 μM, Ca2+ 1.2 mM, RBP 0.6 μM

| Compound | keratinocyte proliferation on addition of retinol or retinoic acid ([1]; 1.2 mM Ca2+, 2 μM ROL, FIG. 10) | effect of RBP or ROL on differentiation ([2]; under differentiation pressure from 1.2 mM calcium) | proliferation of Cos-1 cells (cell numbers) [3] | effect on RBP-increased proliferation [1, 6] | differentiation (expression of K1 and K10 markers) [2, 6] | fibroblast proliferation (cell numbers) [4] | proliferation of Cos-7 cells (cell numbers) [5] |
| --- | --- | --- | --- | --- | --- | --- | --- |
| CC1=C(/C=C/C(C)=C/C=C/C(C)=C/CO)C(C)(C)CCC1 [retinol, (2E,4E,6E,8E)-3,7-dimethyl-9-(2,6,6-trimethylcyclohex-1-en-1-yl)nona-2,4,6,8-tetraen-1-ol, reference compound] | induced | inhibition of differentiation |  |  |  |  |  |
| MKYWGVASFLQKGND [Peptide 592] |  |  | marked reduction in proliferation | reversed | reversed; also recorded: same effect | greater reduction in proliferation | marked reduction in proliferation |
